Measured values published in patent publication US20050143463A1, “Method of inhibiting angiogenesis” (THE QUEEN ELIZABETH HOSPITAL RESEARCH FOUNDATION INC., priority 2002, published 2005).

Experiments:
[1] = test system: chicken chorioallantoic membrane (CAM); test: Chicken chorioallantoic membrane (CAM) assay for angiogenesis; type: in vivo; conditions: for inhibition of angiogenesis in the CAM assay, dose dependent (in words): dose dependent manner; for Vein length (%) / Artery length (%) / CAM Increase (%) / Total vessel length (%) / Vein Diameter (%): % of control, Mean ± SEM; for cytotoxicity to the embryo: chicken embryo, CAM assay; for effect of the lowest dose on vein length, artery length, total vessel length and vein diameter (in words): lowest dose (25 nmol)
Protocol: Fertilised chicken eggs (HiChick Breeding Co, Kapunda, South Australia) were incubated for three days at 38° C. On Day 3 the embryos were cracked out of the egg and into a cup made of plastic piping, with plastic film stretched over the top to form a hammock for the egg to be suspended in. Two ml of DMEM containing penicillin and streptomycin was added to each cup prior to the egg being added. A petri dish on the top maintained sterility. Incubation continued in a humidified 37° C. incubator.
On Day 4 the chorioallantoic membrane (CAM) begins to grow, and pictures were taken of each embryo at ×5 to measure the CAM area using image analysis software (Video Pro 32, Leading Edge Pty Ltd, South Australia).
Embryos were then grouped according to their CAM area, with a control embryo in each for comparison. Grouping is critical as in these early developmental stages changes in the CAM growth are dramatic. Relatively small differences in size on Day 4 translate to large differences in the CAM on Day 5. Treatment was applied in methylcellulose discs, which were dried under vacuum overnight. The methylcellulose discs were applied to the top of the CAM, and at the beginning of treatment were at least three to four-fold bigger than the CAM area, meaning treatment covered the entire CAM surface.
On Day 5 skim milk with contrast medium was injected into the CAM. Pictures were then taken at various levels of magnification up to ×63. Quantitative measurements were made from ×5 pictures. CAM area, and vein and artery lengths were measured using image analysis (Video Pro 32, Leading Edge Pty Ltd, South Australia). Relative vessel lengths were then calculated as the total length/CAM area. Statistical analysis was made using SigmaStat and OneWay ANOVA with p<0.05 as the level of significance.

[2] = test system: Human umbilical vein endothelial cells (HUVEC); test: HUVEC proliferation assay (tritiated thymidine uptake); type: cell-based; conditions: for HUVEC proliferation (in words) / inhibition at 400 µM: 400 μM concentration; for HUVEC proliferation (in words): tritiated thymidine uptake; for inhibition at 400 µM: percentage of control cells with no added agent (Table 3), read-out: Percentage inhibition of HUVEC proliferation; for inhibition of HUVEC proliferation in vitro, dose dependent (in words): dose dependent manner
Protocol: Human umbilical vein endothelial cells (HUVEC) were seeded in 96-well flat bottomed tissue culture plates at a density of 2.5-5×10^4 cells/well and treated with various dilutions of agents. Cells were cultured in RPMI medium containing 20% FCS, Penicillin/Streptomycin in a 5% CO2 atmosphere at 37° C. After 24 to 48 hours of incubation, cells were pulsed with 1 μCi of tritiated thymidine for 6 hours. The pulsed cells were trypsinised to detach from the wells and then harvested in a TOMTEC Cell Harvester onto glass fibre filters, which were dried and immersed in scintillation fluid and counted in a Wallac Microbeta scintillation counter. The results were reported as mean cpm±SD.

[3] = 25 nmol on methylcellulose disc
[4] = 50 nmol on methylcellulose disc
[5] = 100 nmol on methylcellulose disc

16-methyltetradecanoic acid
inhibition of angiogenesis in the CAM assay, dose dependent (in words) [1]: inhibit angiogenesis

CCCCCCCCC(C)CCCCCCCCC(=O)O (stereo not shown) [10-MODA, 10-methyloctadecanoic Acid]
Vein length (%) [1, 3]: 88.4 ± 8.8%
Artery length (%) ([1]; 25 nmol): 85.7 ± 6.2%
CAM Increase (%) ([1]; 25 nmol): 101.9 ± 11.2%
Total vessel length (%) ([1]; 25 nmol): 85.7 ± 5.4%
Vein Diameter (%) ([1]; 25 nmol): 82.9 ± 3.0%
Vein length (%) [1, 4]: 85.8 ± 14.1%
Artery length (%) ([1]; 50 nmol): 94.3 ± 6.3%
CAM Increase (%) ([1]; 50 nmol): 120.2 ± 25.5%
Total vessel length (%) ([1]; 50 nmol): 88.9 ± 7.0%
Vein Diameter (%) ([1]; 50 nmol): 90.2 ± 9.8%
number of branching capillaries sprouting from the main vessels ([1]; 100 nmol): reduction
vessel area ([1]; 100 nmol): diminished
Vein length (%) [1, 5]: 70.9 ± 22.5%
CAM Increase (%) ([1]; 100 nmol): 68.2 ± 8.6%
Vein Diameter (%) ([1]; 100 nmol): 76.1 ± 16.2%
cytotoxicity to the embryo [1]: not cytotoxic
inhibition of angiogenesis in the CAM assay, dose dependent (in words) [1]: inhibit angiogenesis
effect of the lowest dose on vein length, artery length, total vessel length and vein diameter (in words) [1]: inhibited

CC(C)CCCCCCCCC(=O)O [10-methyl undecanoic acid]
HUVEC proliferation (in words) [2]: inhibited
inhibition at 400 µM ([2]; Homo sapiens, HUVEC): 84%
inhibition of HUVEC proliferation in vitro, dose dependent (in words) [2]: inhibit the proliferation

CC(C)CCCCCCCCCC(=O)O [11-methyl dodecanoic acid]
HUVEC proliferation (in words) [2]: inhibited
inhibition at 400 µM ([2]; Homo sapiens, HUVEC): 83%
inhibition of HUVEC proliferation in vitro, dose dependent (in words) [2]: inhibit the proliferation

CCC(C)CCCCCCCCCC(=O)O (stereo not shown) [11-methyl tridecanoic acid]
HUVEC proliferation (in words) [2]: inhibited
inhibition at 400 µM ([2]; Homo sapiens, HUVEC): 42%
inhibition of HUVEC proliferation in vitro, dose dependent (in words) [2]: inhibit the proliferation

CC(C)CCCCCCCCCCC(=O)O [12-methyl tridecanoic acid]
HUVEC proliferation (in words) [2]: inhibited
inhibition at 400 µM ([2]; Homo sapiens, HUVEC): 35%
inhibition of HUVEC proliferation in vitro, dose dependent (in words) [2]: inhibit the proliferation

CC(C)CCCCCCCCCCCC(=O)O [13-MTA, 13-methyltetradecanoic Acid]
HUVEC proliferation (in words) [2]: inhibited
inhibition at 400 µM ([2]; Homo sapiens, HUVEC): 19%
inhibition of HUVEC proliferation in vitro, dose dependent (in words) [2]: inhibit the proliferation
number of branching capillaries sprouting from the main vessels ([1]; 100 nmol): reduction
vessel area ([1]; 100 nmol): diminished
cytotoxicity to the embryo [1]: not cytotoxic
inhibition of angiogenesis in the CAM assay, dose dependent (in words) [1]: inhibit angiogenesis
effect of the lowest dose on vein length, artery length, total vessel length and vein diameter (in words) [1]: inhibited

CCC(C)CCCCCCCCCCCC(=O)O (stereo not shown) [13-methyl pentadecanoic acid]
HUVEC proliferation (in words) [2]: inhibited
inhibition at 400 µM ([2]; Homo sapiens, HUVEC): 21%
inhibition of HUVEC proliferation in vitro, dose dependent (in words) [2]: inhibit the proliferation

CC(C)CCCCCCCCCCCCC(=O)O [14-MPDA, 14-methylpentadecanoic Acid]
HUVEC proliferation (in words) [2]: inhibited
inhibition at 400 µM ([2]; Homo sapiens, HUVEC): 7%
inhibition of HUVEC proliferation in vitro, dose dependent (in words) [2]: inhibit the proliferation
Vein length (%) [1, 3]: 89.6 ± 10.1%
Artery length (%) ([1]; 25 nmol): 81.3 ± 11.4%
Total vessel length (%) ([1]; 25 nmol): 84.7 ± 8.7%
Vein Diameter (%) ([1]; 25 nmol): 90.8 ± 9.2%
Vein length (%) [1, 4]: 80.9 ± 14.3%
Artery length (%) ([1]; 50 nmol): 81.4 ± 11.7%
Total vessel length (%) ([1]; 50 nmol): 80.9 ± 12.3%
Vein Diameter (%) ([1]; 50 nmol): 81.8 ± 14.1%
number of branching capillaries sprouting from the main vessels ([1]; 100 nmol): reduction
vessel area ([1]; 100 nmol): diminished
Vein length (%) [1, 5]: 63.3 ± 5.1^1%
Artery length (%) ([1]; 100 nmol): 83.5 ± 9.3%
Total vessel length (%) ([1]; 100 nmol): 74.0 ± 6.6%
Vein Diameter (%) ([1]; 100 nmol): 76.3 ± 10.2%
cytotoxicity to the embryo [1]: not cytotoxic
inhibition of angiogenesis in the CAM assay, dose dependent (in words) [1]: inhibit angiogenesis
effect of the lowest dose on vein length, artery length, total vessel length and vein diameter (in words) [1]: inhibited

CCC(C)CCCCCCCCCCCCC(=O)O (stereo not shown) [14-methyl hexadecanoic acid]
HUVEC proliferation (in words) [2]: inhibited
inhibition at 400 µM ([2]; Homo sapiens, HUVEC): 41%
inhibition of HUVEC proliferation in vitro, dose dependent (in words) [2]: inhibit the proliferation

CCC(C)CCCCCCCCCCCCCC(=O)O (stereo not shown) [15-methyl heptadecanoic acid]
HUVEC proliferation (in words) [2]: inhibited
inhibition at 400 µM ([2]; Homo sapiens, HUVEC): 49%
inhibition of HUVEC proliferation in vitro, dose dependent (in words) [2]: inhibit the proliferation

CC(C)CCCCCCCCCCCCCC(=O)O [15-methyl hexadecanoic acid]
HUVEC proliferation (in words) [2]: inhibited
inhibition at 400 µM ([2]; Homo sapiens, HUVEC): 63%
inhibition of HUVEC proliferation in vitro, dose dependent (in words) [2]: inhibit the proliferation

CC(C)CCCCCCCCCCCCCCC(=O)O [16-methyl heptadecanoic acid]
HUVEC proliferation (in words) [2]: inhibited
inhibition at 400 µM ([2]; Homo sapiens, HUVEC): 19%
inhibition of HUVEC proliferation in vitro, dose dependent (in words) [2]: inhibit the proliferation

CC(C)CCCCCCCCCCCCCCCC(=O)O [17-MODA, 17-methyloctadecanoic Acid]
Vein length (%) [1, 3]: 81.3 ± 16.8%
Artery length (%) ([1]; 25 nmol): 82.6 ± 18.0%
Total vessel length (%) ([1]; 25 nmol): 81.9 ± 16.9%
Vein Diameter (%) ([1]; 25 nmol): 71.6 ± 13.4%
Vein length (%) [1, 4]: 112.8 ± 9.4%
Artery length (%) ([1]; 50 nmol): 97.0 ± 11.7%
Total vessel length (%) ([1]; 50 nmol): 104.2 ± 10.4%
Vein Diameter (%) ([1]; 50 nmol): 81.3 ± 8.4%
number of branching capillaries sprouting from the main vessels ([1]; 100 nmol): reduction
vessel area ([1]; 100 nmol): diminished
Vein length (%) [1, 5]: 94.3 ± 18.9%
Artery length (%) ([1]; 100 nmol): 97.2 ± 17.4%
Total vessel length (%) ([1]; 100 nmol): 95.9 ± 18.1%
Vein Diameter (%) ([1]; 100 nmol): 70.0 ± 15.0%
cytotoxicity to the embryo [1]: not cytotoxic
inhibition of angiogenesis in the CAM assay, dose dependent (in words) [1]: inhibit angiogenesis
effect of the lowest dose on vein length, artery length, total vessel length and vein diameter (in words) [1]: inhibited

CO[C@H]1C[C@@H]2CC[C@@H](C)[C@@](O)(O2)C(=O)C(=O)N2CCCC[C@H]2C(=O)O[C@H]([C@H](C)C[C@@H]2CC[C@@H](O)[C@H](OC)C2)CC(=O)[C@H](C)/C=C(\C)[C@@H](O)[C@@H](OC)C(=O)[C@H](C)C[C@H](C)/C=C/C=C/C=C/1C [rapamycin, reference compound]
% Inhibition of HUVEC proliferation ([2]; 0.1 nM rapamycin, 24 hours (Table 2)): 72.8%
inhibition at 0.0001 µM ([2]; Homo sapiens, HUVEC, 24 h, 0.1 nM rapamycin, 24 hours (Table 2)): 73%
inhibition at 0.001 µM ([2]; Homo sapiens, HUVEC, 24 h, 1 nM rapamycin, 24 hours (Table 2)): ~80%
